{"source": "patent US20090047218A1", "about": "“Method for producing albumin conjugates comprising an X-ray contrast medium as the active substance” (Albupharm Heidelberg GmbH & Co. KG, priority 2005, published 2009)", "experiment": "Stability of iodine-containing X-ray contrast medium against radiation (iodine-starch reaction)", "type": "physicochemical", "settings": "about 40 mg in 40 ml 0.1% starch solution", "description": "Approximately 40 mg 2,3,5-triiodobenzoic acid (TIB) or another X-ray contrast medium that can be obtained commercially (diatrizoic acid or iotalamic acid etc.) is dissolved in 40 ml of a 0.1% starch solution while gently heating. 20 ml is in each case distributed to two Petri dishes (diameter 11.5 cm). Dish 1 is placed in full sunlight for 1 hour. Dish 2 is irradiated at a distance of 11 cm with a UV hand-held lamp (254 nm, 14 μW/cm^2).\nThis is even more significant because the energy of the UV irradiation (like the intensity of the irradiation source used) is approximately 100-fold lower than that of the X-ray irradiation of a computer tomograph."}
{"smiles": "O=C(O)c1cc(I)cc(I)c1I", "note": "[2,3,5-triiodobenzoic acid]", "values": [{"measurement": "colour of the solution (iodine-starch reaction) after exposure to daylight", "setting": "dish 1, full sunlight for 1 hour", "value": "still colourless"}, {"measurement": "colour of the solution (iodine-starch reaction) after UV irradiation", "setting": "dish 2, UV hand-held lamp 254 nm, 14 μW/cm^2, distance 11 cm", "value": "typical, intensive blue staining of the iodine-starch reaction"}]}
